Experimental data reported in ChEMBL document CHEMBL1128134, “Characterization of a continuous fluorogenic assay for calpain I. Kinetic evaluation of peptide aldehydes, halomethyl ketones and (acyloxy)methyl ketones as inhibitors of the enzyme” (Bioorg Med Chem Lett, 1995).
Square brackets hold non-standard residues; d marks the D form. Peptide text beside a SMILES is read from it. * marks the point of attachment. ξ: configuration not given here. hPhe = N[C@@H](CCc1ccccc1)C(=O)O; tBuAla = CC(C)(C)C[C@H](N)C(=O)O; ξPhg = NC(C(=O)O)c1ccccc1; Cbz = O=C(OCc1ccccc1)*; ξL = CC(C)CC(N)C(=O)O; CH2Cl = ClC*

Assays:
Calpain 1 (Homo sapiens) = Calpain 1 (Homo sapiens) (UniProt P04632+P07384); test: Apparent second order rate constant for inhibition of calpain-1 by fluorogenic assay.; format: protein-complex assay
Calpain 1 = Calpain 1 (Homo sapiens, UniProt P07384); test: Inhibition of Calpain 1 by [3H]acetyl-casein assay; format: protein-complex assay
Chain of Calpain 1 (P04632 whole entry): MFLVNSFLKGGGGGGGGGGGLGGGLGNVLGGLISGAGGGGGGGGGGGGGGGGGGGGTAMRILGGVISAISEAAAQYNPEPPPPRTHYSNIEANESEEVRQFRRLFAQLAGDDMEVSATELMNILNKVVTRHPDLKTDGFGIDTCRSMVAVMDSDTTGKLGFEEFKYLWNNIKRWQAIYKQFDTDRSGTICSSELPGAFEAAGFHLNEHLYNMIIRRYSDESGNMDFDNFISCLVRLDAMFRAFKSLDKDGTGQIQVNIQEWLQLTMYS
Chain of Calpain 1 (P07384 whole entry): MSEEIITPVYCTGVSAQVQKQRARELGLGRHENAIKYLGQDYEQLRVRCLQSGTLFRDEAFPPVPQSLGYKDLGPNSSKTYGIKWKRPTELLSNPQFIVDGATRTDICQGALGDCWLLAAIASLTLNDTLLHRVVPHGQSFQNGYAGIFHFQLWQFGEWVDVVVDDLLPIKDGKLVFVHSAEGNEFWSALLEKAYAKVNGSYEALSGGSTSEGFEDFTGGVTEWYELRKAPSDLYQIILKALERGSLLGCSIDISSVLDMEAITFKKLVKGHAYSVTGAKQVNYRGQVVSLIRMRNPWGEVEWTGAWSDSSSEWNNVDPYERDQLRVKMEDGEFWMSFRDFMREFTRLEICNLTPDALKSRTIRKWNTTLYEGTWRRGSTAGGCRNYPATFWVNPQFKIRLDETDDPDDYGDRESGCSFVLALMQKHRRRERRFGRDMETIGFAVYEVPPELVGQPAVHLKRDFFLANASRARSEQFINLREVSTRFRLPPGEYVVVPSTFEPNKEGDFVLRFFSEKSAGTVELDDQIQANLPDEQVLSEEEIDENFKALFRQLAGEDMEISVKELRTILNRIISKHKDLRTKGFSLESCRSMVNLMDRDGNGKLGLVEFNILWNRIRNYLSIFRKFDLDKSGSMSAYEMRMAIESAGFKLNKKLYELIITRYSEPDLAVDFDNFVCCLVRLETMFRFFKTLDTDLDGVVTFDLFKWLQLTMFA

[1] = biological target: Procathepsin L (Homo sapiens) (UniProt P07711); test: Inhibition of cathepsin L (fluorogenic assay), apparent second order rate constant
Chain of Procathepsin L (Homo sapiens) (P07711 114-333 limits assumed): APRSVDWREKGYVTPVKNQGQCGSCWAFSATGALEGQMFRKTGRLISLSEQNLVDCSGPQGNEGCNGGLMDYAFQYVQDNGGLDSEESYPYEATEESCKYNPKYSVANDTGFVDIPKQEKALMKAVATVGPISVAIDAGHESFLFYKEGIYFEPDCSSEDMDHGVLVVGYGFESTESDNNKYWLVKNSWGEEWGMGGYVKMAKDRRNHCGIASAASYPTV

[2] = biological target: Cathepsin B (Homo sapiens) (UniProt P07858); test: Apparent second order rate constant for inhibition of cathepsin B by fluorogenic assay.

SMILES	k obs / 1 (Calpain 1 (Homo sapiens)) [M⁻¹ s⁻¹]	IC50 (Calpain 1) [nM]	k obs / 1 [1] [M⁻¹ s⁻¹]	k obs / 1 [2] [M⁻¹ s⁻¹]
CC(C)CC(NC(=O)OCc1ccccc1)C(=O)NC(Cc1ccccc1)C(=O)COC(=O)c1c(F)cccc1F (configuration not stated)	9000			
CC(C)C[C@H](NC(=O)OCc1ccccc1)C(=O)N[C@H](C=O)Cc1ccccc1 (Cbz-Leu-Phe-aldehyde)		35		
O=C[C@H](Cc1ccccc1)NC(=O)C(NC(=O)OCc1ccccc1)c1ccccc1 (some centres not stated) (Cbz-[ξPhg]-Phe-aldehyde)		100		
CC(C)CC(NC(=O)OCc1ccccc1)C(=O)NCC(=O)COC(=O)c1c(Cl)cccc1Cl (configuration not stated)	6000			
CC(C)CC(NC(=O)[C@@H](C)NC(=O)OCc1ccccc1)C(=O)NC(Cc1ccccc1)C(=O)COC(=O)c1c(F)cccc1F (some centres not stated)	31000		300	100
C[C@H](NC(=O)OCc1ccccc1)C(=O)N[C@H](C=O)Cc1ccccc1		140		
CC(=O)Nc1cccc(Cl)c1C(=O)OCC(=O)CNC(=O)C(CC(C)C)NC(=O)OCc1ccccc1 (configuration not stated)	600			
CC(C)C(NC(=O)OCc1ccccc1)C(=O)NCC(=O)COC(=O)c1c(Cl)cccc1Cl (configuration not stated)	800			
CC(C)CC(NC(=O)OC(C)(C)C)C(=O)NC(Cc1ccccc1)C(=O)COC(=O)c1c(F)cccc1F (configuration not stated)	8000			
O=C(CNC(=O)C(Cc1ccccc1)NC(=O)OCc1ccccc1)COC(=O)c1c(Cl)cccc1Cl (configuration not stated)	< 500			
CC(C)(C)C[C@H](NC(=O)OCc1ccccc1)C(=O)N[C@H](C=O)Cc1ccccc1 (Cbz-[tBuAla]-Phe-aldehyde)		100		
CC(NC(=O)C(Cc1ccccc1)NC(=O)OCc1ccccc1)C(=O)COC(=O)c1c(Cl)ccc(OCCN2CCOCC2)c1Cl (configuration not stated)	< 500		180000	150000
CC(C)CC(NC(=O)OCc1ccccc1)C(=O)NC(Cc1ccc(O)cc1)C(=O)COC(=O)c1c(Cl)ccc(S(=O)(=O)CCN2CCOCC2)c1Cl (configuration not stated)	54000		50000	2600
Cc1ccc(S(=O)(=O)NC(CC(C)C)C(=O)NC(Cc2ccccc2)C(=O)COC(=O)c2c(F)cccc2F)cc1 (configuration not stated)	1500			
O=C[C@H](Cc1ccccc1)NC(=O)[C@H](CCc1ccccc1)NC(=O)OCc1ccccc1 (Cbz-[hPhe]-Phe-aldehyde)		270		
CC(C)CC(NC(=O)OCc1ccccc1)C(=O)NC(Cc1ccccc1)C(=O)COC(=O)c1c(Cl)ccc(S(=O)(=O)CCN2CCOCC2)c1Cl (configuration not stated)	30000		38000	80
O=C(CNC(=O)OCc1ccccc1)NC(Cc1ccccc1)C(=O)COC(=O)c1c(Cl)ccc(S(=O)(=O)NCC(=O)OCc2ccccc2)c1Cl (configuration not stated)	900			
CC(C)CC(C(=O)NC(Cc1ccccc1)C(=O)COC(=O)c1c(F)cccc1F)N(C)C(=O)OCc1ccccc1 (configuration not stated)	< 500			
CC(NC(=O)C(Cc1ccccc1)NC(=O)OCc1ccccc1)C(=O)CCl (configuration not stated)	< 500			220000
CC(C)CC(NC(=O)OCc1ccccc1)C(=O)NC(C)C(=O)COC(=O)c1c(Cl)ccc(OCCN2CCOCC2)c1Cl (configuration not stated)	6000			58000
CC(C)CC(NC(=O)OCc1ccccc1)C(=O)NCC(=O)CCl (configuration not stated) (Cbz-[ξL]-Gly-CH2Cl)	31000		500000	170000
CC(C)CC(NC(=O)OCc1ccccc1)C(=O)NCC(=O)COC(=O)c1c(Cl)ccc(OCCN2CCOCC2)c1Cl (configuration not stated)	6000			
CC(C)CC(NC(=O)OCc1ccccc1)C(=O)NC(Cc1ccc(O)cc1)C(=O)COC(=O)c1c(Cl)ccc(S(=O)(=O)N2CCOCC2)c1Cl (configuration not stated)	14000			
CC(C)C[C@H](NC(=O)CNC(=O)OCc1ccccc1)C(=O)N[C@@H](Cc1ccccc1)C(=O)CCl (Cbz-Gly-Leu-Phe-CH2Cl)	3300			2700
NC(=O)CC(NC(=O)OCc1ccccc1)C(=O)NC(Cc1ccccc1)C(=O)CCl (stereo not drawn) (Cbz-Asn-Phe-CH2Cl; configuration not given here)	600			3000
CC(C)CC(NC(=O)[C@@H](Cc1ccccc1)NC(=O)OCc1ccccc1)C(=O)NC(Cc1ccccc1)C(=O)COC(=O)c1c(F)cccc1F (some centres not stated)	1000		100	100
CC(C)CC(NC(=O)OCc1ccccc1)C(=O)NC(Cc1ccc(O)cc1)C(=O)COC(=O)c1c(F)cccc1F (configuration not stated)	7000			

SMILES	k obs / 1 (Calpain 1 (Homo sapiens)) [M⁻¹ s⁻¹]	IC50 (Calpain 1) [nM]	k obs / 1 [1] [M⁻¹ s⁻¹]	k obs / 1 [2] [M⁻¹ s⁻¹]
CC(C)CC(NC(=O)CNC(=O)OCc1ccccc1)C(=O)NC(Cc1ccccc1)C(=O)COC(=O)c1c(F)cccc1F (configuration not stated)	15000		14000	800
CC(C)C(NC(=O)OCc1ccccc1)C(=O)NCC(=O)COC(=O)c1c(Cl)ccc(S(=O)(=O)NCC(=O)OCc2ccccc2)c1Cl (configuration not stated)	12000		120000	600000
CC(C)CC(NC(=O)OCc1ccccc1)C(=O)NC(Cc1ccccc1)C(=O)COC(=O)c1c(Cl)ccc(S(=O)(=O)N2CCOCC2)c1Cl (configuration not stated)	17000			
CC(C)CC(NC(=O)OCc1ccccc1)C(=O)NC(C)C(=O)CCl (configuration not stated)	6000			43000
Cc1cccc(C)c1C(=O)OCC(=O)C(Cc1ccccc1)NC(=O)C(NC(=O)OCc1ccccc1)C(C)C (configuration not stated)	700			
CC(C)CC(NC(=O)[C@@H](C)NC(=O)OCc1ccccc1)C(=O)NCC(=O)COC(=O)c1c(Cl)ccc(OCCN2CCOCC2)c1Cl (some centres not stated)	< 500			
CC(C)C[C@H](NC(=O)[C@H](C)NC(=O)OCc1ccccc1)C(=O)N[C@@H](Cc1ccccc1)C(=O)COC(=O)c1c(F)cccc1F	19000		1600	2200
CC(C)CC(NC(=O)OCc1ccccc1)C(=O)NC(Cc1ccc(O)cc1)C(=O)CCl (stereo not drawn) (Cbz-Leu-Tyr-CH2Cl; configuration not given here)	1500			2000
CC(C)C(NC(=O)OCc1ccccc1)C(=O)NC(Cc1ccccc1)C(=O)COC(=O)c1c(Cl)ccc(S(=O)(=O)CCN2CCOCC2)c1Cl (configuration not stated)	20000		63000	5500
CC(=O)Nc1cccc(Cl)c1C(=O)OCC(=O)C(C)NC(=O)C(CC(C)C)NC(=O)OCc1ccccc1 (configuration not stated)	500			
O=C(CNC(=O)OCc1ccccc1)NC(Cc1ccccc1)C(=O)COC(=O)c1c(Cl)cccc1Cl (configuration not stated)	700			
CC(C)C(NC(=O)OCc1ccccc1)C(=O)NC(Cc1ccccc1)C(=O)COC(=O)c1c(Cl)cccc1Cl (configuration not stated)	11000			
CC(C)CC(NC(=O)OCc1ccccc1)C(=O)NCC(=O)COC(=O)c1c(Cl)ccc(S(=O)(=O)N2CCOCC2)c1Cl (configuration not stated)	23000		160000	260000
CC(C)C[C@H](NC(=O)OCc1ccccc1)C(=O)N[C@@H](Cc1ccc(O)cc1)C(=O)CBr	< 500			50
CC(C)CC(NC(=O)OCc1ccccc1)C(=O)NC(Cc1ccc(O)cc1)C(=O)COC(=O)c1c(Cl)cccc1Cl (configuration not stated)	28000		33000	1600
CC(C)CC(NC(=O)[C@@H](C)NC(=O)OCc1ccccc1)C(=O)NC(Cc1ccccc1)C(=O)COC(=O)c1c(Cl)ccc(OCCN2CCOCC2)c1Cl (some centres not stated)	32000		28000	400
CC(NC(=O)OCc1ccccc1)C(=O)NCC(=O)COC(=O)c1c(Cl)cccc1Cl (configuration not stated)	< 500			
CC(C)CC(NC(=O)OCc1ccccc1)C(=O)NC(Cc1ccccc1)C(=O)COC(=O)c1c(Cl)cccc1Cl (configuration not stated)	11000		2700	250
COC(=O)N[C@H](C)C(=O)NC(CC(C)C)C(=O)NC(Cc1ccccc1)C(=O)COC(=O)c1c(F)cccc1F (some centres not stated)	1400		400	700
COC(=O)N[C@H](C)C(=O)NC(CC(C)C)C(=O)NC(Cc1ccccc1)C(=O)COC(=O)c1c(Cl)ccc(OCCN2CCOCC2)c1Cl (some centres not stated)	43000		90000	4700
CC(C)C[C@H](NC(=O)OCc1ccccc1)C(=O)N[C@@H](CC(C)C)C(=O)N[C@@H](Cc1ccccc1)C(=O)CCl (Cbz-Leu-Leu-Phe-CH2Cl)	9500			30000
O=C(N[C@@H](Cc1ccccc1)C(=O)N[C@@H](Cc1ccccc1)C(=O)CCl)OCc1ccccc1 (Cbz-Phe-Phe-CH2Cl)	< 500			
CC(NC(=O)C(Cc1ccccc1)NC(=O)OCc1ccccc1)C(=O)COC(=O)c1c(Cl)cccc1Cl (configuration not stated)	< 500		104000	360000
CC(C)CC(NC(=O)OCc1ccccc1)C(=O)NC(C)C(=O)COC(=O)c1c(Cl)ccc(S(=O)(=O)N2CCOCC2)c1Cl (configuration not stated)	14000			
CC(C)C[C@H](NC(=O)[C@@H]1CCCN1C(=O)OCc1ccccc1)C(=O)N[C@@H](Cc1ccccc1)C(=O)COC(=O)c1c(F)cccc1F	26500			11000
CC(C)CC(NC(=O)OCc1ccccc1)C(=O)NC(Cc1ccccc1)C(=O)CCl (stereo not drawn) (Cbz-Leu-Phe-CH2Cl; configuration not given here)	5500			2500
